Laboratory results from patent US11382946B2, “Multi-functional peptides and use thereof” (NOVACELL TECHNOLOGY INC., priority 2019, dated 2022).
Non-standard residues stand in square brackets, D forms with d. Residues, ends and D or L forms follow the SMILES beside them. 2Nal = N[C@@H](Cc1ccc2ccccc2c1)C(=O)O; Nle = CCCC[C@H](N)C(=O)O

How the values were obtained:
FPR2 = molecular target: T1, FPR2 (Homo sapiens, UniProt P25090); test: FPR2 activation by intracellular calcium ion increase (Fura-2/AM) in FPR2-RBL cells; assay type: cell-based; details: RBL cells overexpressing FPR2
T1 construct: expressed in transfected cells; host or cells: RBL cells overexpressing FPR2 (FPR2-RBL)
T1 sequence (P25090 1-351): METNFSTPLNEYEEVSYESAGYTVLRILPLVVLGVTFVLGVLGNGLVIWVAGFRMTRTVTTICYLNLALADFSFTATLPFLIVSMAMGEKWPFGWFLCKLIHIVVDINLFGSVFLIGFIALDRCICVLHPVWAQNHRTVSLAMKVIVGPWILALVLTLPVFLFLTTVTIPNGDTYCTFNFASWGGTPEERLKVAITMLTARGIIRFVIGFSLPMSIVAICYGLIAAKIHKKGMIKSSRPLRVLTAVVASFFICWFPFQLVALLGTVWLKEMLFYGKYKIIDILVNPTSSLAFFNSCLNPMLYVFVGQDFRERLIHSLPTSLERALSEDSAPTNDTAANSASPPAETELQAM
Experimental: The present inventors observed a change in calcium ion permeability of the candidate peptides according to an embodiment of the present invention in order to determine whether they can activate the immunomodulatory function in a body or not. Particularly, intracellular concentration of calcium ions was measured to confirm that the peptide activates FPR2. RBL cells that do neither express FPR1 nor FPR2, RBL cells overexpressed FPR1 (FPR1-RBL) and RBL cells that overexpressed FPR2 (FPR2-RBL) were used and Fura-2/AM which is a fluorophore having high binding affinity to calcium in order to measure intracellular calcium ion level sensitively. For this purpose, cells were cultured in RPMI medium supplemented with 10% fetal bovine serum and harvested by centrifugation in log phase (mid-log phase, 1-3×10^7 cells/ml), and then washed several times with RPMI medium not supplemented with fetal bovine serum, and then the cells were resuspended in RPMI medium to 1×10^7 cells/ml. Subsequently, a final 3 μM concentration of Fura-2/AM was added and the cells were incubated for 45 minutes in a 37° C., 5% CO2 incubator. After the appropriated time, the cells are harvested, washed again with RPMI medium, and then suspended in the appropriate amount of RPMI medium supplemented with 250 μM of sulfinpyrazone, in order to prevent loss of Fura-2 entering the cells. About 2×10^6 cells were taken each time, harvested by rapid centrifugation, and resuspended in 1 ml of a Locke solution without addition of calcium ions and EGTA added, and the ratio of absorbance at two wavelengths of 340 nm and 380 nm on a spectrophotometer were monitored by treating the peptides according to an embodiment of the present invention at different concentrations (1 μM, 0.1 μM, and 0.01 μM) at intervals of about 1 minute, and then the difference in absorbance at two wavelengths was investigated. It was converted to the concentration of free calcium ions into cells according to the method of Grynkiewicz.

P. aeruginosa = assay type: cell-based, Pseudomonas aeruginosa; details: 18 h
Experimental: (§1) The present inventors evaluated […] in order to select peptides showing excellent performance among various peptides synthesized in the Example 1. Particularly, in order to measure the antimicrobial activity of the peptide, after preparing Gram-positive bacteria Staphylococcus aureus (S. aureus) and Gram-negative bacteria Pseudomonas aeruginosa (P. aeruginosa), the bacteria were plated on agar plate medium by fourth streaking and cultured overnight in a 36° C. incubator. The next day, the strain colonies produced on the agar plate medium were inoculated into 3 ml nutrient medium and cultured overnight in a stirring incubator at 36° C. and 220 rpm. The next day, the bacteria were diluted to measure absorbance at 600 nm, adjusted to OD600=0.5, and diluted in a 1:100 ratio in nutrient medium. Then, the peptides prepared in the above Examples were serially diluted in concentrations of 0, 1.25, 2.5, 5, 10, and 20 μM in a nutrient medium to prepare 1 ml each, and then inoculated with 1 ml of the diluted bacteria. Subsequently, the mixture was stirred under conditions of 36° C. and 220 rpm, and incubated for 18 hours, and absorbance at 600 nm was measured.
(§2) As a result, 20 peptides showing high antibacterial activity against P. aeruginosa and S. aureus) were selected (FIGS. 2 and 3).

S. aureus = assay type: cell-based, Staphylococcus aureus; details: 18 h
Experimental: as §1, §2

| EC50 (FPR2) [nM] | Antimicrobial activity (IC50, μg/ml) P. aeruginosa (P. aeruginosa) [µg/mL] | Antimicrobial activity (IC50, μg/ml) S. aureus (S. aureus) [µg/mL] | SMILES |
| --- | --- | --- | --- |
| 61.3 | >50 | 13.3 | CCCC[C@H](NC(=O)[C@H](CCCNC(=N)N)NC(=O)[C@H](Cc1c[nH]c2ccccc12)NC(=O)[C@H](Cc1c[nH]c2ccccc12)NC(=O)[C@H](CCCNC(=N)N)NC(=O)[C@H](Cc1ccc2ccccc2c1)NC(C)=O)C(=O)N[C@@H](Cc1c[nH]c2ccccc12)C(=O)N[C@@H](Cc1c[nH]c2ccccc12)C(=O)N[C@@H](CCCNC(=N)N)C(=O)N[C@@H](Cc1c[nH]c2ccccc12)C(=O)N[C@H](CCSC)C(N)=O [Peptide V23_Ac, Ac-ZRWWR-Nle-WWRWm-NH2] (Ac-[2Nal]RWWR[Nle]WWRW[dM]-NH2) |
| 58.6 | 47.8 | 24.0 | CSCC[C@@H](NC(=O)[C@H](Cc1c[nH]c2ccccc12)NC(=O)[C@H](CCCNC(=N)N)NC(=O)[C@H](Cc1c[nH]c2ccccc12)NC(=O)[C@H](Cc1c[nH]c2ccccc12)NC(=O)[C@H](CCCNC(=N)N)NC(=O)[C@H](CCCNC(=N)N)NC(C)=O)C(N)=O [Peptide V24_Ac, Ac-RRWWRWm-NH2] (Ac-RRWWRW[dM]-NH2) |
